Here are results for three molecules from patent publication US6090801A, “Pharmaceutical compositions containing ceftriaxone and penems” (SmithKline Beecham p.l.c., priority 1993, dated 2000).

A short description of data set [1]: serum half-life. The class given is in vivo. Conditions: in words; compared with ceftriaxone.
For data set [2] the following is noted: in vivo; cited from earlier work.
Data set [3] deals with various microorganisms. Description: enhancement of antibacterial activity of ceftriaxone by compound of formula (I) (MIC data overall). The class given is cell-based. The note with it: with 1 μg/ml compound of formula (I); from β-lactamase inhibitory effect.
Data set [4] has as its system Bacteroides fragilis. Conditions: coadministration with tazobactam; J. Antimicrobial Chemotherapy (1993), 32, 307-312; cited from earlier work.
The subject of data set [5] is Bacteroides fragilis VP1 8908. Description: MIC of ceftriaxone, alone and with compound of formula (I). The class given is cell-based.
The subject of data set [6] is Enterobacter cloacae P99. The description is as above. The class given is cell-based.
In data set [7] the test system is Klebsiella pneumoniae 4. The data set is described as above. The class given is cell-based.
[8] abbreviates: ceftriaxone + 1 μg/1 ml of compound of Formula (I).

Take `O=C([O-])C1=CS[C@@H]2/C(=C\c3cn4c(n3)SCC4)C(=O)N12.[Na+]` (racemic): the serum half life result in data set [1] was “more compatible with ceftriaxone”.

Turning to `C[C@]1(Cn2ccnn2)[C@H](C(=O)O)N2C(=O)C[C@H]2S1(=O)=O` [tazobactam], the serum half-lives entry in data set [2] is reported as “ca. 1 hours”.

With `CO/N=C(\C(=O)N[C@@H]1C(=O)N2C(C(=O)O)=C(CSc3nc(=O)c(=O)[nH]n3C)CS[C@H]12)c1csc(N)n1` [Ceftriaxone, [6R-[6α,7β(Z)]]-7-[[(2-Amino4-thiazolyl)(methoxyimino)acetyl]amino]-8-oxo-3-[[(1,2,5,6-tetrahydro-2-methyl-5-6-dioxo-1,2,4-triazin-3-yl)thio]-methyl]-5-thia-1-azabicyclo[4-2-O]oct-2-ene-2-carboxylic acid], in data set [3], the “enhancement of antibacterial activity of ceftriaxone” value is on record as “substantial enhancement of antibacterial activity”. Besides, the “activity of ceftriaxone against anaerobes such as Bacteroides fragilis” value in data set [4] is “enhanced by coadministration with the β-lactamaseinhibitor tazobactam”. The MIC in data set [5] (VP18908, ceftriaxone alone) is 128 mg/L; in data set [6] (Enterobacter cloacae, P99, read-out: MIC Ceftriaxone alone) it was 128 mg/L; in data set [7] (ceftriaxone alone), 16 mg/L. For the same molecule, the “MIC + 1 μg/1 ml of compound of Formula (I)” value turned out to be 2 mg/L in data set [5] (setting [8]); 0.5 mg/L in data set [6] (Enterobacter cloacae P99, ceftriaxone + 1 μg/1 ml of compound of Formula (I)); 0.5 mg/L in data set [7] (setting [8]). In addition, in data set [2], the serum half-lives entry is “ca. 8 hours”.
